The values below come from patent US20240307308A1, “PORPHYRIN NANOVESICLE WITH FATTY ACID CONJUGATE” (priority 2021, published 2024).

For data set [1], the system named is KB cells. Description: Intracellular uptake by fluorescence microscopy. To be noted: 1 mM (1000 μM) free EDTA with 5 μM PS. The format is cell-based. Here is the method:
Fluorescence microscopy method was firstly used to track particles' intracellular uptake on KB cells that cultured in RPMI-1640 media with 10% FBS. Briefly, 5×10^4 cells/well were seeded in eight-well chamber slides 24 h prior to incubation. Cells were incubated with NPS and PS at porphyrin concentration of 1 μM for 4 h at 37° C., rinsed with PBS for 3 times and then re-culture in fresh media. Olympus FV1000 laser fluorescence scanning microscopy (Olympus, Tokyo, Japan) was conducted to monitor the porphyrin fluorescence change of the cells with time (immediately and at 3 h and 18 h after removing the incubation medium). The fluorescence microscopy method was also used to examine eNPS uptake in KB epithelium cells versus normal fibroblast cells (NFB)

For data set [2] the following is noted: doses of 1000 mg/kg; cited from earlier work.

“Also recorded” adds a separate entry of the source.

Turning to `O=C(O)CN(CCN(CC(=O)O)CC(=O)O)CC(=O)O` [free EDTA, Ethylenediaminetetraacetic acid], the “Effect of co-incubated free EDTA on PS uptake” value in data set [1] was “negligible enhancement; also recorded: negligible effect”.

For “pyropheophorbide-lipid [porphyrin-lipid]”, the Acute toxicity entry in data set [2] is on record as “minimal acute toxicities”.
